The values below come from EP4786472A1, “BRD4 PROTEIN DEGRADATION AGENT COMPOUND, AND PREPARATION METHOD AND USE THEREFOR” (Miracure Biotechnology Limited, priority 2023, dated 2025).

Where two headings read alike, the source gives them in different places. Bounds are passed on as bounds.

Holding throughout (assay type): cell-based
One assay concerns the target BRD4 (Homo sapiens, UniProt O60885). The experiment in a line: BRD4 degradation assay (Western-blot / Simple Western) in 22RV1 cells. To be noted: for activity at 0.2 µM: 22Rv1, 5 h, read-out: BRD4 degradation of 22RV1 (200 nM 5 h).
A further assay concerns LNCaP. The experiment in a line: Cell proliferation assay (CellTiterGlo). To be noted: LNCaP cells, 72 h compound treatment, CellTiterGlo cell viability, read-out: LNCap ATP average IC50. As to the method: (§1) Test Example 1. Cell Proliferation Assay
(§2) The cell line used was 22RV1 or LNCaP, and the medium was RPMI-1640 containing 10% FBS and antibiotics. All incubations were performed at 37 °C in a humidified carbon dioxide incubator.
(§3) On day 1, cells were digested with 0.25% trypsin (containing EDTA) and collected by centrifugation. The cells were seeded in a 96-well plate (white wall/transparent bottom) at 5000 cells/well and cultured overnight.
(§4) On day 2, A stock solution of the compound at a concentration of 10 mM was subjected to an 8-fold serial dilution to obtain 8 concentration points. 2 µL of the compound solution at each concentration point was added to 98 µL of fresh medium, and the mixture was mixed homogeneously. Then, 5 µL of the compound solution diluted in the medium at each concentration point was added to 100 µL of overnight medium containing the cells, and 2 replicates were set for each concentration. The mixture was cultured for 72 h.
(§5) After 72 h of compound treatment, the plate was equilibrated to room temperature, 100 µL of CellTiterGlo (Promega) was added. The mixture was mixed homogeneously for 2 min, left to stand at room temperature for 10 min, and then read for luminescence values on a SpectraMax M5 microplate reader to evaluate cell viability. The positive control was 1% Tween-20 and the negative control was 0.1% DMSO. IC50 was generated by 4-parameter non-linear regression fitting in GraphPad Prism.

For another assay, the system named is 22RV1. The experiment in a line: Cell proliferation assay (CellTiterGlo). The following applies: 22RV1 cells, 72 h compound treatment, CellTiterGlo cell viability, read-out: 22Rv1 ATP average IC50. As to the method: as §1, §2, §3, §4, §5

As a reminder, the IC50 is the concentration at which inhibition is half-maximal. In the case of `Cc1sc2c(c1C)C(c1ccc(C#CCN)cc1)=N[C@@H](CC(=O)OC(C)(C)C)c1nnc(C)n1-2` [GNE-0011, reference compound], at BRD4 (22RV1 cells, 200 nM, 5 h, target content as percentage of control (DMSO = 100%)), the “BRD4 degradation of 22RV1 (200 nM 5 h)” value is “B (20% < B <50%)”. In addition, the IC50 with LNCaP and in the assay with 22RV1 was less than 50 nM throughout.

Consider `C=CC(=O)Nc1ccc(C2=N[C@@H](CC(=O)OC(C)(C)C)c3nnc(C)n3-c3sc(C)c(C)c32)cc1` [compound 9230], for which the activity at 0.2 µM at BRD4 is less than 20%. In addition, the IC50 in the assay on LNCaP (Homo sapiens) and with 22RV1 (Homo sapiens) was less than 50 nM in each case.

Consider `C=CS(=O)(=O)Nc1ccc(C2=N[C@@H](CC(=O)OC(C)(C)C)c3nnc(C)n3-c3sc(C)c(C)c32)cc1` [compound 9231], for which the activity at 0.2 µM at BRD4 was less than 20%. In addition, the IC50 was less than 50 nM in the assay with LNCaP (Homo sapiens) and 50 to 200 nM in the assay with 22RV1 (Homo sapiens).

As to `Cc1sc2c(c1C)C(c1ccc(NC(=O)CCl)cc1)=N[C@@H](Cc1nccs1)c1nnc(C)n1-2` [compound 9250], the activity at 0.2 µM on BRD4 was 80 to 100%. For the same compound, the IC50 in the assay on LNCaP (Homo sapiens) and in the assay with 22RV1 (Homo sapiens) was less than 50 nM each time.

Regarding `CC#CC(=O)Nc1ccc(C2=N[C@@H](Cc3nccs3)c3nnc(C)n3-c3sc(C)c(C)c32)cc1` [compound 9253], the activity at 0.2 µM at BRD4 fell in the range of 50 to 80%. The IC50 with LNCaP (Homo sapiens) and with 22RV1 (Homo sapiens) was less than 50 nM throughout.

Take `CC#CC(=O)Nc1ccc(C2=N[C@@H](CC(=O)OC(C)(C)C)c3nnc(C)n3-c3sc(C)c(C)c32)cc1` [compound 9259]: at BRD4, the activity at 0.2 µM is 20 to 50%. For the same compound, the IC50 with LNCaP (Homo sapiens) and in the assay on 22RV1 (Homo sapiens) was less than 50 nM each time.

For `C#CC(=O)Nc1ccc(C2=N[C@@H](CC(=O)OC(C)(C)C)c3nnc(C)n3-c3sc(C)c(C)c32)cc1` [compound 9260], at BRD4, the activity at 0.2 µM was less than 20%. Besides, the IC50 in the assay with LNCaP (Homo sapiens) and with 22RV1 (Homo sapiens) was less than 50 nM in each case.
